The values below come from patent US6900220B2, “Quinazolone derivatives as alpha 1A/B adrenergic receptor antagonists” (Syntex (U.S.A.) LLC, priority 2001, dated 2005).

SMILES strings stand for the structures. Where a name gives a salt, the structure may show the parent alone.

The subject of the first data set is anesthetized dog. Description: Dog in vivo blood and intraurethral pressure assay. Conditions: anesthetized mongrel dogs, i.v. bolus, increasing doses. How it is done: The following describes an in vivo assay for measuring the relative effect of test compounds on hypogastric nerve stimulation-induced increases in intraurethral pressure and phenylephrine-induced increases in diastolic blood pressure in anesthetized dog.
Mongrel dogs (10 to 20 kg) were fasted for 12 to 18 hours and anesthetized with […] (35 mg/kg, i.v.). An endotracheal tube was inserted and thereafter the lungs were mechanically ventilated with room air. The right femoral vein was isolated and cannulated with two polyethylene cannulae, one for the administration of a continuous infusion of phenobarbital sodium (5 to 10 mg/kg/hr) and the other for bolus administration of test substances. The right femoral artery was isolated and cannulated to the abdominal aorta with a fluid filled polyethylene cannula connected to an external pressure transducer for monitoring diastolic aortic pressure (DAP). The bladder was exposed via a ventral midline abdominal incision and emptied of urine through a 22 gauge needle. The bladder was cannulated through a stab incision with a water filled balloon catheter connected to an external pressure transducer for monitoring prostatic intraurethral pressure (IUP). The right hypogastric nerve (HGN) was carefully isolated and attached to a Dastre's electrode for nerve stimulation. […]
As for `COc1cc2nc(N3CCN(C(=O)c4ccco4)CC3)nc(N)c2cc1OC` [prazosin], the “inhibition of hypogastric nerve (HGN) stimulation-induced increases in intraurethral pressure (IUP) relative to phenylephrine-induced increases in diastolic aortic pressure (DAP)” value is “inhibited increases in IUP and DAP in similar fashion”.

Tested on in the next data set: not given
Assay: not given
Settings: not given
With `COc1cc2nc(N3CCc4c(CN5CCOCC5)cccc4C3)[nH]c(=O)c2cc1OC` (as salt: hydrochloric acid salt) [Compound 701, 6,7-Dimethoxy-2-(5-morpholin-4-ylmethyl-3,4-dihydro-1H-isoquinolin-2-yl)-3H-quinazolin-4-one], the melting point lay in the range of 227.9 to 229.6 °C.
On the same count and under the same terms, for `COc1cc2nc(N3CCc4c(cccc4C(=N)N4CCOCC4)C3)[nH]c(=O)c2cc1OC` (as salt: hydrochloric acid salt) [Compound 901, 2-[5-(imino-morpholin-4-yl-methyl)-3,4-dihydro-1H-isoquinolin-2-yl]-6,7-dimethoxy-3H-quinazolin-4-one] the value was 249 to 251 °C.
Still for that read-out and setting: with `COc1cc2nc(N3CCc4c(cccc4-c4cnccc4N)C3)[nH]c(=O)c2cc1OC` (as salt: hydrochloric acid salt) [Compound 902, 2-[5-(4-amino-pyridin-3-yl)-3,4-dihydro-1H-isoquinolin-2-yl]-6,7-dimethoxy-3H-quinazol-4-one] the figure was more than 300 °C.
The same measure, in the same setting: for `COc1cc2c(cc1OC)CN(c1nc(=O)c3cc(OC)c(OC)cc3[nH]1)CC2` [Compound 105, 2-(6,7-dimethoxy-3,4-dihydro-1H-isoquinolin-2-yl)-6,7-dimethoxy-1H-quinazolin-4-one] the value was 188.6 to 190.4 °C.
Regarding `COc1cc2nc(N3CCc4c(ncnc4N4CCOCC4)C3)[nH]c(=O)c2cc1OC` [Compound 201, 6,7-dimethoxy-2-(4-morpholin-4-yl-5,8-dihydro-6H-pyrido[3,4-d]pyrimidin-7-yl)-3H-quinazolin-4-one], the melting point is 287.7 to 290.4 °C.
Molecule `COc1cc2nc(N3CCn4c(cnc4NC4CCCCC4)C3)[nH]c(=O)c2cc1OC` [Compound 301, 2-(3-cyclohexylamino-5,6-dihydro-8H-imidazo[1,5-a]pyrazin-7-yl)-6,7-dimethoxy-1H-quinazolin-4-one] returned a melting point of 248 to 249.4 °C.
Same read-out and setting: with `COc1cc2nc(N3CCc4c(cccc4S(=O)(=O)N4CCN(C)CC4)C3)[nH]c(=O)c2cc1OC` [Compound 401, 6,7-dimethoxy-2-[5-(4-methyl-piperazine-1-sulfonyl)-3,4-dihydro-1H-isoquinolin-2-yl]-3H-quinazolin-4-one] the figure was 230 to 237 °C.
Still for that read-out and setting: for `COc1cc2[nH]c(N3CCn4c(-c5ccccc5)cnc4C3)nc(=O)c2cc1OC` [Compound 904, 6,7-dimethoxy-2-(3-phenyl-5,6-dihydro-8H-imidazo[1,2-α]pyrazin-7-yl)-1H-quinazolin-4-one] the value was more than 300 °C.
